Results taken from patent US20100266716A1, “Natural Photodynamic Agents and their use” (priority 2007, published 2010).

Tests used:
Salmonella choleraesuis = assay: MBEC device biofilm photodynamic killing (Example 1); type: cell-based; parameters: key to Killing of Salmonella cholerasuis biofilm (eradication or growth): “−” = biofilm eradication at the mentioned conditions (concentration, exposure time and Light source); “+” = biofilm growth; conditions: for Killing of Salmonella cholerasuis biofilm (eradication or growth): 16 Hours exposure
Description: (§1) Test microorganisms included Salmonella choleraesuis, Staphylococcus aureus, foodborne pathogens of humans. Test Compounds included Methylene blue, Hemoglobin (blood product), Hemin (blood product), Protoporphyrin (blood product), Annatto Extract (15% Norbixin), beet juice, Canthaxanthin (10%), Beta-carotene (1%), Purple carmine 50%, Carmine lake 60%, Black Carrot extract, Tomato lycopene (5%), sodium copper chlorophyllin, grape skin extract, paprika oleoresin, riboflavin, saffron, titanium dioxide, FD&C blue No1., turmeric oleoresin, FD&C blue No. 2, FD&C Green No. 3, FD&C Red No. 2 (Amaranth), FD&C Red No. 40, FD&C Yellow No. 5, and FD&C Yellow No. 6. Compounds were prepared as 1%, 0.1%, 0.01%, by weight, dissolved in water.
(§2) The light source was a full spectrum fluorescent light or LED light and the contact time was 1 and 16 hours. The study temperature was 37° C.
(§3) Approximately 10^6 organisms in 150 uL Cation Adjusted Mueller Hinton Broth (CAMHB) were placed in each of the wells of a 96 peg MBEC device. The lid of the 96 peg MBEC device was placed on the bottom plate containing organism. The device was placed on a shaker, set to 110 rpm, and incubated at 37° C. for 24 hours to produce biofilms.
(§4) The challenge plates were set up using a sterile 96-well microtitre plate using aseptic techniques in the following manner (one organism per plate, per light exposure time, per light source). Test solutions (200 uL) were placed into each well. The lid was transferred to the challenge plate and exposed to the various light sources for the prescribed exposure times (16 hours). Following the treatment, the pegs were transferred to the recovery media (“recovery plate”) then wrapped in tin foil and incubated at 37° C. for 18 to 24 hours. The recovery plate(s) was wrapped in tin foil, incubated at 37° C. for 24 hours and read visually and by a plate reader, set to an optical density measurement of 630 nm, to determine Minimum Biofilm Eradication Concentration (MBEC) by looking at growth or no growth.

Staphylococcus aureus = assay: as above; type: cell-based; parameters: key to Killing of Staph aureus biofilm (eradication or growth): “−” = biofilm eradication at the mentioned conditions (concentration, exposure time and Light source); “+” = biofilm growth; conditions: 16 Hours exposure
Description: as §1, §2, §3, §4

SMILES | Killing of Salmonella cholerasuis biofilm (eradication or growth) (Salmonella choleraesuis; Fluorescent Light, 0.01%) | Killing of Salmonella cholerasuis biofilm (eradication or growth) (Salmonella choleraesuis; Fluorescent Light, 0.1%) | Killing of Salmonella cholerasuis biofilm (eradication or growth) (Salmonella choleraesuis; Fluorescent Light, 1%) | Killing of Salmonella cholerasuis biofilm (eradication or growth) (Salmonella choleraesuis; LED Light, 0.01%) | Killing of Salmonella cholerasuis biofilm (eradication or growth) (Salmonella choleraesuis; LED Light, 0.1%) | Killing of Salmonella cholerasuis biofilm (eradication or growth) (Salmonella choleraesuis; LED Light, 1%) | effective as photodynamic agent in killing biofilm organisms (Salmonella choleraesuis; Salmonella choleraesuis and Staphylococcus aureus biofilm, summary of Table 1) | Killing of Staph aureus biofilm (eradication or growth) (Staphylococcus aureus; Fluorescent Light, 0.01%) | Killing of Staph aureus biofilm (eradication or growth) (Staphylococcus aureus; Fluorescent Light, 0.1%) | Killing of Staph aureus biofilm (eradication or growth) (Staphylococcus aureus; Fluorescent Light, 1%) | Killing of Staph aureus biofilm (eradication or growth) (Staphylococcus aureus; LED Light, 0.01%) | Killing of Staph aureus biofilm (eradication or growth) (Staphylococcus aureus; LED Light, 0.1%) | Killing of Staph aureus biofilm (eradication or growth) (Staphylococcus aureus; LED Light, 1%)
CCN(Cc1cccc(S(=O)(=O)[O-])c1)c1ccc(C(=C2C=CC(=[N+](CC)Cc3cccc(S(=O)(=O)[O-])c3)C=C2)c2ccccc2S(=O)(=O)[O-])cc1.[Na+].[Na+] [Blue No. 1, FD&C blue No1.] | − | − | − | + | + | + | Effective | + | + | + | + | + | +
O=C1/C(=C2\Nc3ccc(S(=O)(=O)[O-])cc3C2=O)Nc2ccc(S(=O)(=O)[O-])cc21.[Na+].[Na+] [Blue No. 2, FD&C blue No. 2] | + | + | + | + | + | + |  | + | + | + | + | + | +
CC1=C(/C=C/C(C)=C/C=C/C(C)=C/C=C/C=C(C)/C=C/C=C(C)/C=C/C2=C(C)C(=O)CCC2(C)C)C(C)(C)CCC1=O [Canthaxanthin] | + | + | + | + | + | + |  | + | + | + | + | + | +
CCN(Cc1cccc(S(=O)(=O)[O-])c1)c1ccc(C(=C2C=CC(=[N+](CC)Cc3cccc(S(=O)(=O)[O-])c3)C=C2)c2ccc(O)cc2S(=O)(=O)[O-])cc1.[Na+].[Na+] [Green No. 3, FD&C Green No. 3] | + | + | + | + | + | + |  | + | + | + | + | + | +
